IC50 data for one compound are collected here from paper PMC3076504 (2011).

For the assay, the target named is Isocitrate lyase (ICL) (Mycobacterium tuberculosis, UniProt P9WKK7). In words: colorimetric glyoxylate-phenylhydrazone assay at […] nm, dose response. It counts as biochemical.
Sequence of Isocitrate lyase (ICL) (P9WKK7 whole entry): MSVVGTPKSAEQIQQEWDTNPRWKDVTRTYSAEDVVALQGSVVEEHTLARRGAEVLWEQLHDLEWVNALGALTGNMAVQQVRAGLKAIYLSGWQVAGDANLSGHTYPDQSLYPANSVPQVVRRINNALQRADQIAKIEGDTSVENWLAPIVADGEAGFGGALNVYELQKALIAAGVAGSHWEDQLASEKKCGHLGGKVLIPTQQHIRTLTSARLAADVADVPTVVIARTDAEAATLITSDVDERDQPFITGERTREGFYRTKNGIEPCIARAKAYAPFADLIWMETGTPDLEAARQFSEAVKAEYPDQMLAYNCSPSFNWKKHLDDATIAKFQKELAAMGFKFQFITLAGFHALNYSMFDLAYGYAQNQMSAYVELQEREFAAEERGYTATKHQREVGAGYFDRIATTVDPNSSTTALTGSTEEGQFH

Broadly, the IC50 is the concentration needed to halve the response being measured. Lower therefore signals greater potency in that assay. Regarding `O=C(O)C(=O)O` [oxalic acid], the IC50 worked out at 13 mM.
